Experimental data from patent US20080167314A1, “Condensed Imidazole Compound And Use Thereof” (priority 2004, published 2008).

| Compound | melting point [°C] |
| --- | --- |
| COc1ccc(C(=O)Nc2cc(-c3c(-c4ccc(F)c(C)c4)nc4ccc(N(C)C)nn34)ccn2)cc1 [Example 45-2, N-{4-[6-(dimethylamino)-2-(4-fluoro-3-methylphenyl)imidazo[1,2-b]pyridazin-3-yl]pyridin-2-yl}-4-methoxybenzamide] | 224 to 225 |
| CNc1ccc2nc(-c3ccc(F)c(C)c3)c(-c3ccnc(NC(=O)c4ccc(OC)cc4)c3)n2n1 [Example 46, N-{4-[2-(4-Fluoro-3-methylphenyl)-6-(methylamino)imidazo[1,2-b]pyridazin-3-yl]pyridin-2-yl}-4-methoxybenzamide] | 178 to 180 |
| CNC(=O)Nc1cc(-c2c(-c3ccc(F)c(C)c3)nc3cccnn23)ccn1 [Example 47-1, N-{4-[2-(4-fluoro-3-methylphenyl)imidazo[1,2-b]pyridazin-3-yl]pyridin-2-yl}-N′-methylurea] | 225 to 227 |
| Cc1cc(-c2nc3cccnn3c2-c2ccnc(NC(=O)NC(C)(C)C)c2)ccc1F [Example 47-2, N-(tert-butyl)-N′-{4-[2-(4-fluoro-3-methylphenyl)imidazo[1,2-b]pyridazin-3-yl]pyridin-2-yl}urea] | 234 to 235 |
| CCC(C)NC(=O)Nc1cc(-c2c(-c3ccc(F)c(C)c3)nc3cccnn23)ccn1 (stereo not shown) [Example 47-3, N-(sec-butyl)-N′-{4-[2-(4-fluoro-3-methylphenyl)imidazo[1,2-b]pyridazin-3-yl]pyridin-2-yl}urea] | 196 to 197 |
| Cc1cc(-c2nc3cccnn3c2-c2ccnc(NC(=O)NCCCCl)c2)ccc1F [Example 47-4, N-(3-chloropropyl)-N′-{4-[2-(4-fluoro-3-methylphenyl)imidazo[1,2-b]pyridazin-3-yl]pyridin-2-yl}urea] | 170 to 171 |
| Cc1cc(-c2nc3cccnn3c2-c2ccnc(NC(=O)Nc3ccc(C#N)cc3)c2)ccc1F [Example 47-5, N-(4-cyanophenyl)-N′-{4-[2-(4-fluoro-3-methylphenyl)imidazo[1,2-b]pyridazin-3-yl]pyridin-2-yl}urea] | 204 to 206 |
| Cc1cc(-c2nc3cccnn3c2-c2ccnc(NC(=O)Nc3ccsc3)c2)ccc1F [Example 47-6, N-{4-[2-(4-fluoro-3-methylphenyl)imidazo[1,2-b]pyridazin-3-yl]pyridin-2-yl}-N′-3-thienylurea] | 234 to 235 |
| CCNC(=O)Nc1cc(-c2c(-c3ccc(F)c(C)c3)nc3c(C)cc(Cl)nn23)ccn1 [Example 48-1, N-{4-[6-chloro-2-(4-fluoro-3-methylphenyl)-8-methylimidazo[1,2-b]pyridazin-3-yl]-2-pyridyl}-N′-ethylurea] | 229 to 230 |
| CCNC(=O)Nc1cc(-c2c(-c3ccc(F)c(C)c3)nc3cc(C(C)(C)C)c(Cl)nn23)ccn1 [Example 48-2, N-{4-[7-tert-butyl-6-chloro-2-(4-fluoro-3-methylphenyl)imidazo[1,2-b]pyridazin-3-yl]-2-pyridyl}-N′-ethylurea] | 246 to 247 |
| CCNC(=O)Nc1cc(-c2c(-c3ccc(F)c(C)c3)nc3c(C)ccnn23)ccn1 [Example 48-3, N-{4-[2-(4-fluoro-3-methylphenyl)-8-methylimidazo[1,2-b]pyridazin-3-yl]-2-pyridyl}-N′-ethylurea] | 240 to 241 |
| CCNC(=O)Nc1cc(-c2c(-c3ccc(F)c(C)c3)nc3cc(C(C)(C)C)cnn23)ccn1 [Example 48-4, N-{4-[7-tert-butyl-2-(4-fluoro-3-methylphenyl)imidazo[1,2-b]pyridazin-3-yl]-2-pyridyl}-N′-ethylurea] | 212 to 213 |
| CCNC(=O)Nc1cc(-c2c(-c3ccc(F)c(C)c3)nc3ccc(NC)nn23)ccn1 [Example 48-5, N-ethyl-N′-{4-[2-(4-fluoro-3-methylphenyl)-6-(methylamino)imidazo[1,2-b]pyridazin-3-yl]pyridin-2-yl}urea] | 263 to 264 |
| Cc1cc(-c2nc3cccnn3c2-c2ccnc(NC(=O)NC3CC3)c2)ccc1F [Example 51-1, N-cyclopropyl-N′-{4-[2-(4-fluoro-3-methylphenyl)imidazo[1,2-b]pyridazin-3-yl]pyridin-2-yl}urea] | 222 to 223 |
| Cc1cc(-c2nc3cccnn3c2-c2ccnc(NC(=O)NCC(F)(F)F)c2)ccc1F [Example 51-2, N-{4-[2-(4-fluoro-3-methylphenyl)imidazo[1,2-b]pyridazin-3-yl]pyridin-2-yl}-N′-(2,2,2-trifluoroethyl)urea] | 229 to 230 |
| Cc1cc(-c2nc3cccnn3c2-c2ccnc(NC(=O)NCC(C)C)c2)ccc1F [Example 51-3, N-{4-[2-(4-fluoro-3-methylphenyl)imidazo[1,2-b]pyridazin-3-yl]pyridin-2-yl}-N′-isobutylurea] | 213 to 214 |
| CCC(CC)NC(=O)Nc1cc(-c2c(-c3ccc(F)c(C)c3)nc3cccnn23)ccn1 [Example 51-4, N-(1-ethylpropyl)-N′-{4-[2-(4-fluoro-3-methylphenyl)imidazo[1,2-b]pyridazin-3-yl]pyridin-2-yl}urea] | 187 to 188 |

| Compound | melting point [°C] |
| --- | --- |
| Cc1cc(-c2nc3cccnn3c2-c2ccnc(NC(=O)NCCS(C)(=O)=O)c2)ccc1F [Example 51-5, N-{4-[2-(4-fluoro-3-methylphenyl)imidazo[1,2-b]pyridazin-3-yl]pyridin-2-yl}-N′-[2-(methylsulfonyl)ethyl]urea] | 204 to 205 |
| CSc1ccc(NC(=O)Nc2cc(-c3c(-c4ccc(F)c(C)c4)nc4cccnn34)ccn2)cc1 [Example 51-6, N-{4-[2-(4-fluoro-3-methylphenyl)imidazo[1,2-b]pyridazin-3-yl]pyridin-2-yl}-N′-[4-(methylthio)phenyl]urea] | 219 to 220 |
| Cc1cc(-c2nc3cccnn3c2-c2ccnc(NC(=O)Nc3cccnc3)c2)ccc1F [Example 51-7, N-{4-[2-(4-fluoro-3-methylphenyl)imidazo[1,2-b]pyridazin-3-yl]pyridin-2-yl}-N′-(pyridin-3-yl)urea] | 233 to 234 |
| Cc1cc(NC(=O)Nc2cc(-c3c(-c4ccc(F)c(C)c4)nc4cccnn34)ccn2)[nH]n1 [Example 51-8, N-{4-[2-(4-fluoro-3-methylphenyl)imidazo[1,2-b]pyridazin-3-yl]pyridin-2-yl}-N′-(3-methyl-1H-pyrazol-5-yl)urea] | 239 to 240 |
| Cc1cc(-c2nc3cccnn3c2-c2ccnc(NC(N)=O)c2)ccc1F [Example 51-9, N-{4-[2-(4-fluoro-3-methylphenyl)imidazo[1,2-b]pyridazin-3-yl]pyridin-2-yl}urea] | 254 to 255 |
| Cc1cc(-c2nc3cccnn3c2-c2ccnc(NC(=O)NC3CCC(O)CC3)c2)ccc1F (stereo not shown) [Example 51-10, N-{4-[2-(4-fluoro-3-methylphenyl)imidazo[1,2-b]pyridazin-3-yl]pyridin-2-yl}-N′-(4-hydroxycyclohexyl)urea] | 218 to 220 |
| Cc1cc(-c2nc3cccnn3c2-c2ccnc(NC(=O)NCC(C)O)c2)ccc1F (stereo not shown) [Example 51-13, N-{4-[2-(4-fluoro-3-methylphenyl)imidazo[1,2-b]pyridazin-3-yl]pyridin-2-yl}-N′-(2-hydroxypropyl)urea] | 139 to 140 |
| Cc1cc(-c2nc3cccnn3c2-c2ccnc(NC(=O)NC3CCOCC3)c2)ccc1F [Example 51-15, N-{4-[2-(4-fluoro-3-methylphenyl)imidazo[1,2-b]pyridazin-3-yl]pyridin-2-yl}-N′-(tetrahydro-2H-pyran-4-yl)urea] | 240 to 241 |
| Cc1cccc(-c2nc3cccnn3c2-c2ccnc(NC(=O)NC3CCOCC3)c2)c1 [Example 52, N-{4-[2-(3-Methylphenyl)imidazo[1,2-b]pyridazin-3-yl]pyridin-2-yl}-N′-(tetrahydro-2H-pyran-4-yl)urea] | 222 |
| COc1ccc2nc(-c3ccc(F)c(C)c3)c(-c3ccnc(NC(=O)NC(C)C)c3)n2n1 [Example 53, N-{4-[2-(4-Fluoro-3-methylphenyl)-6-methoxyimidazo[1,2-b]pyridazin-3-yl]pyridin-2-yl}-N′-isopropylurea] | 233 to 234 |
| CSc1ccc2nc(-c3ccc(F)c(C)c3)c(-c3ccnc(NC(=O)NC(C)C)c3)n2n1 [Example 54, N-{4-[2-(4-Fluoro-3-methylphenyl)-6-(methylthio)imidazo[1,2-b]pyridazin-3-yl]pyridin-2-yl}-N′-isopropylurea] | 241 to 242 |
| Cc1cc(-c2nc3cccnn3c2-c2ccnc(N3CCCNC3=O)c2)ccc1F [Example 55, 1-{4-[2-(4-Fluoro-3-methylphenyl)imidazo[1,2-b]pyridazin-3-yl]pyridin-2-yl}tetrahydropyrimidine-2-(1H)-one] | 213 to 215 |
| Cc1cc(-c2nc3cccnn3c2-c2ccnc(NC(=O)CCS(C)(=O)=O)c2)ccc1F [Example 56, N-{4-[2-(4-Fluoro-3-methylphenyl)imidazo[1,2-b]pyridazin-3-yl]pyridin-2-yl}-3-(methylsulfonyl)propanamide] | 227 to 228 |
| Cc1cc(-c2nc3cccnn3c2-c2ccnc(NC(=O)CS(C)(=O)=O)c2)ccc1F [Example 57-1, N-{4-[2-(4-fluoro-3-methylphenyl)imidazo[1,2-b]pyridazin-3-yl]pyridin-2-yl}-2-(methylsulfonyl)acetamide] | 240 to 241 |
| Cc1cc(-c2nc3c([S+](C)[O-])cc(Cl)nn3c2-c2ccnc(N)c2)ccc1F (stereo not shown) [Example 57-2, 4-[6-chloro-2-(4-fluoro-3-methylphenyl)-8-(methylsulfinyl)imidazo[1,2-b]pyridazin-3-yl]-2-pyridylamine] | 216 to 217 |
| CC(=O)CNC(=O)Nc1cc(-c2c(-c3ccc(F)c(C)c3)nc3cccnn23)ccn1 [Example 63, N-{4-[2-(4-Fluoro-3-methylphenyl)imidazo[1,2-b]pyridazin-3-yl]pyridin-2-yl}-N′-(2-oxopropyl)urea] | 208 to 209 |
| Cc1cccc(-c2nc3ccc(Cl)nn3c2-c2ccnc(Nc3ccc(F)cc3C)c2)c1 [Example Compound 3-1, 4-[6-chloro-2-(3-methylphenyl)imidazo[1,2-b]pyridazin-3-yl]-N-(4-fluoro-2-methylphenyl)pyridin-2-amine] | 191 to 192 |
